The values below are quoted from earlier work in patent US12090225B2 (Avalyn Pharma Inc., priority 2018, dated 2024).

For this series the following is noted: cited from earlier work.

For the compound `COC(=O)c1ccc2c(c1)NC(=O)/C2=C(\Nc1ccc(N(C)C(=O)CN2CCN(C)CC2)cc1)c1ccccc1` [Nintedanib, methyl (3Z)-3-[[4-[methyl-[2-(4-methylpiperazin-1-yl)acetyl]amino]anilino]-phenylmethylidene]-2-oxo-1H-indole-6-carboxylate], the “administered nintedanib excreted in the urine” value (in vivo) is “About 80%”. Further, the oral bioavailability (oral nintedanib) is 5%.
